Here are results for 34 compounds from patent US20240286998A1, “F[…], ANALOGUES THEREOF, AND METHODS USING SAME” (Saint Joseph's University, priority 2021, published 2024).

In one series the target is 5-HT1A (Homo sapiens (Human), UniProt P08908). In words: 5-HT1A Gi/o-mediated cAMP inhibition, GloSensor assay. Format: cell-based. To be noted: for 5-HT1A-cAMP Emax (% 5-HT): cAMP inhibition, 0.2 μM isoproterenol, IA = Inactive.
The target in the next series is 5-HT2A (Homo sapiens (Human), UniProt P28223). In words: 5-HT2A Gq-mediated calcium flux functional assay. Format: cell-based. A general note: Calcium flux is commonly read through the fluorescence of an indicator in the cells.
The target of another series is Serotonin 5-HT2A (human) (Homo sapiens (Human), UniProt P28223). As to the kind of experiment: 5-HT2A receptor binding, [3H]-ketanserin competition in membrane fractions. To be noted: for 5-HT2A pKi ± SEM: 1 nM [3H]-ketanserin, Cheng-Prusoff, N=1-3.
The target in a further series is 5-HT2C (Homo sapiens (Human), UniProt P28335). In words: 5-HT2C Gq-mediated calcium flux functional assay. In kind it is cell-based.
A further series deals with 5-HT2B (Homo sapiens (Human), UniProt P41595). In words: 5-HT2B Gq-mediated calcium flux functional assay. Format: cell-based.
Where [1] appears, read: IA = Inactive, N=1-3, read-out: 5-HT2A-Ca2+ FLUX pEC50 (converted).
Where [2] appears, read: IA = Inactive, N=1-3, read-out: 5-HT2C-Ca2+ FLUX pEC50 (converted).

Structures can show the parent of a compound that is named as a salt. Where two headings read alike, the source gives them in different places.

Usually melting point stands for the temperature of the solid-liquid transition. Usually Ki stands for the equilibrium dissociation constant of an inhibitor or competing ligand from its target. Higher therefore signals a looser hold on the target.

Chain of 5-HT2B (P41595 whole entry): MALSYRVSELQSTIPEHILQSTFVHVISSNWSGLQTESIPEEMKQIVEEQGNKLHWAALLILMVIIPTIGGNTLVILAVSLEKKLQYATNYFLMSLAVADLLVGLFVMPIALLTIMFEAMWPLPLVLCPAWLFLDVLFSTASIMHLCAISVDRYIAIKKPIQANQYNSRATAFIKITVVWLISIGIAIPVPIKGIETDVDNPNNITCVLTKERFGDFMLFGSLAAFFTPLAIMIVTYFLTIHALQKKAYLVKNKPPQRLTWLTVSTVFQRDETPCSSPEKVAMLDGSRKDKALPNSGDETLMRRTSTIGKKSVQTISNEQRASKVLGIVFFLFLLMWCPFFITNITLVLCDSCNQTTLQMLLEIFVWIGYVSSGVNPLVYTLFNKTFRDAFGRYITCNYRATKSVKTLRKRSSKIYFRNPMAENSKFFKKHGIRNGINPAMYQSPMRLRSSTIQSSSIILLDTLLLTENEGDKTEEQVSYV
Chain of 5-HT2C (P28335 whole entry, looked up): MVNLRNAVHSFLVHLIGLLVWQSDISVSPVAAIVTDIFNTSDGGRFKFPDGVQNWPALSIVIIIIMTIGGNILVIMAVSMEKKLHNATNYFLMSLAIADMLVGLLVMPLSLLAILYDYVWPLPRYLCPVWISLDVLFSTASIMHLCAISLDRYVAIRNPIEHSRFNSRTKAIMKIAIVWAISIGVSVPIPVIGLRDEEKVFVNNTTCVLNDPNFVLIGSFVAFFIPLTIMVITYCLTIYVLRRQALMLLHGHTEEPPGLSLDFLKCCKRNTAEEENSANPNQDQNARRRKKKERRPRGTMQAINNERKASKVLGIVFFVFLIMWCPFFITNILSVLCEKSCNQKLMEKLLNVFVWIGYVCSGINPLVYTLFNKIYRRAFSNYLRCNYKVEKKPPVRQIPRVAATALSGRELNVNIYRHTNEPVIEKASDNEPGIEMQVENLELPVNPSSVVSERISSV

For `CCCN(CCc1c[nH]c2c(F)cccc12)C1CCC1` (as salt: hydrochloride) [compound 162, N-(2-(7-fluoro-1H-indol-3-yl)ethyl)-N-propylcyclobutanamine], the melting point was in the range of 231.7 to 237.2 °C.
The same measure, in the same setting: the result for `C=CCN(CCc1c[nH]c2ccc(F)cc12)C1CCC1` (as salt: HCl) [Example 14, N-allyl-N-(2-(5-fluoro-1H-indol-3-yl)ethyl)cyclobutanamine] reads 196.3 to 199 °C.
With `CCCN(CC)CC(=O)c1c[nH]c2ccc(F)cc12` [compound 24, 2-(ethyl(propyl)amino)-1-(5-fluoro-1H-indol-3-yl)ethan-1-one], the melting point was 203.4 to 205.6 °C. Besides, at 5-HT1A, the EC50 is 0.49 nM and the “5-HT1A-cAMP Emax (% 5-HT)” value was found to be 20.5 ± 1.4 % 5-HT. In addition, the “5-HT2A-Ca2+ FLUX Emax (% 5-HT)” value at 5-HT2A (IA = Inactive, N=1-3) came out at 81.0 ± 2.4 % 5-HT. The EC50 at 5-HT2A (setting [1]) was 1410 nM.
Turning to `CN(CCc1c[nH]c2ccc(F)cc12)C1CSC1` (as salt: HCl) [compound 20, N-(2-(5-fluoro-1H-indol-3-yl)ethyl)-N-methylthietan-3-amine], the melting point was in the range of 221 to 223.3 °C.
In turn, `CN1CC(c2c[nH]c3ccc(F)cc23)C1` [compound 29, 5-fluoro-3-(1-methylazetidin-3-yl)-1H-indole] came in with a melting point of 119 to 122.8 °C. In addition, on 5-HT1A, the EC50 was 851 nM and the “5-HT1A-cAMP Emax (% 5-HT)” value is reported as 64.0 ± 3.5 % 5-HT. For the same compound, on Serotonin 5-HT2A (human), the “5-HT2A pKi ± SEM” value was determined as 6.30. On 5-HT2C (IA = Inactive, N=1-3), the “5-HT2C-Ca2+ FLUX Emax (% 5-HT)” value was 28.5 ± 0.8 % 5-HT. In addition, the EC50 at 5-HT2C (setting [2]) was 49 nM.
Compound `CCC(C)N(CCc1c[nH]c2ccc(F)cc12)C(C)C` (stereo not drawn) (as salt: HCl) [compound 32, N-(2-(5-fluoro-1H-indol-3-yl)ethyl)-N-isopropylbutan-2-amine] registered a melting point of 193.7 to 195 °C.
`CC(C)N(CCc1c[nH]c2ccc(F)cc12)CC1CC1` (as salt: hydrochloride) came in with a melting point of 191 to 192.5 °C.
On to `C=CCN(CCC)CCc1c[nH]c2ccc(F)cc12` (as salt: salt) [compound 35, N-(2-(5-fluoro-1H-indol-3-yl)ethyl)-N-propylprop-2-en-1-amine], for which the melting point lay in the range of 175.1 to 177.2 °C.
Same read-out and setting: the result for `CC(C)C(C)N(C)CCc1c[nH]c2ccc(F)cc12` (stereo not drawn) (as salt: hydrochloride) reads 157.5 to 158.1 °C; that for `CC(C)CN(C)CCc1c[nH]c2ccc(F)cc12` (as salt: hydrochloride) [compound 39, N-(2-(5-fluoro-1H-indol-3-yl)ethyl)-N,2-dimethylpropan-1-amine], 150 to 151.5 °C; that for `CCCN(CCC)CCc1c[nH]c2ccc(F)cc12` (as salt: HCl) [Example 5, N-(2-(5-fluoro-1H-indol-3-yl)ethyl)-N-propylpropan-1-amine], 187.5 to 188 °C.
Still for that read-out and setting: the result for `CCC(C)N(C)CCc1c[nH]c2ccc(F)cc12` (stereo not drawn) (as salt: HCl) [Example 3, N-(2-(5-fluoro-1H-indol-3-yl)ethyl)-N-methylbutan-2-amine] reads 136.5 to 142 °C.
Compound `CN(CCc1c[nH]c2ccc(F)cc12)C1CCC1` [compound 51, N-(2-(5-fluoro-1H-indol-3-yl)ethyl)-N-methylcyclobutanamine] yielded a melting point of 219.4 to 219.7 °C. Moreover, at Serotonin 5-HT2A (human), the “5-HT2A pKi ± SEM” value is listed as 6.80 ± 0.02.
`CCCN(CCc1c[nH]c2ccc(F)cc12)C(C)CC` (stereo not drawn) (as salt: hydrochloride) [compound 22, N-(2-(5-fluoro-1H-indol-3-yl)ethyl)-N-propylbutan-2-amine] yielded a melting point of 153.2 to 155.4 °C.
Still for that read-out and setting: the result for `CCCN(CC)CCc1c[nH]c2ccc(F)cc12` (as salt: HCl) [Example 6, N-ethyl-N-(2-(5-fluoro-1H-indol-3-yl)ethyl)propan-1-amine] reads 154.5 to 155.4 °C.
Same read-out and setting: next, `CCN(C)CC(=O)c1c[nH]c2ccc(F)cc12`: 160.1 to 164.8 °C.
On to `CCN(C)CCc1c[nH]c2c(F)c(F)c(F)cc12` [compound 164, N-ethyl-N-methyl-2-(5,6,7-trifluoro-1H-indol-3-yl)ethan-1-amine], for which the melting point was 212.1 to 212.5 °C. The “5-HT2A pKi ± SEM” value at Serotonin 5-HT2A (human) is on record as 6.90 ± 0.13. In addition, the EC50 on 5-HT2A was 6.46 nM. Also, at 5-HT2A (IA = Inactive, N=1-3), the “5-HT2A-Ca2+ FLUX Emax (% 5-HT)” value turned out to be 76.1 ± 1.1 % 5-HT. In addition, the EC50 at 5-HT2C is 18.6 nM. Besides, on 5-HT2C (IA = Inactive, N=1-3), the “5-HT2C-Ca2+ FLUX Emax (% 5-HT)” value is listed as 89.3 ± 1.3 % 5-HT. For the same compound, on 5-HT2B, the EC50 is 6.17 nM. The “5-HT2B-Ca2+ FLUX Emax (% 5-HT)” value on 5-HT2B (IA = Inactive, N=1-3) is listed as 33.2 ± 0.9 % 5-HT.
Regarding `CC(C)N(CCc1c[nH]c2ccc(F)cc12)C1CCC1` (as salt: hydrochloride) [compound 40, N-(2-(5-fluoro-1H-indol-3-yl)ethyl)-N-isopropylcyclobutanamine], the melting point was in the range of 191.6 to 193 °C.
Still for that read-out and setting: next, `C=CCN(CC)CCc1c[nH]c2ccc(F)cc12` (as salt: hydrochloride) [compound 36, N-ethyl-N-(2-(5-fluoro-1H-indol-3-yl)ethyl)prop-2-en-1-amine]: 123.7 to 128.5 °C.
For the compound `CC(CN)c1c[nH]c2ccc(F)cc12` (stereo not drawn) [compound 187, 2-(5-fluoro-1H-indol-3-yl)propan-1-amine], the EC50 at 5-HT1A was 933 nM; at 5-HT2A (setting [1]) it was 36.3 nM; at 5-HT2C (setting [2]) it was 18.6 nM; at 5-HT2B (IA = Inactive, N=1-3, read-out: 5-HT2B-Ca2+ FLUX pEC50 (converted)) it was 1.26 nM. Also, at 5-HT1A, the “5-HT1A-cAMP Emax (% 5-HT)” value came out at 88.5 ± 2.8 % 5-HT. On Serotonin 5-HT2A (human), the “5-HT2A pKi ± SEM” value is on record as 5.41. Moreover, at 5-HT2A (IA = Inactive, N=1-3), the “5-HT2A-Ca2+ FLUX Emax (% 5-HT)” value worked out at 90.7 ± 2.5 % 5-HT. In addition, at 5-HT2C (IA = Inactive, N=1-3), the “5-HT2C-Ca2+ FLUX Emax (% 5-HT)” value turned out to be 93.6 ± 0.9 % 5-HT. In addition, the “5-HT2B-Ca2+ FLUX Emax (% 5-HT)” value on 5-HT2B (IA = Inactive, N=1-3) amounted to 89.0 ± 1.4 % 5-HT.
Take `C=CCN(CCc1c[nH]c2ccc(F)cc12)C(C)CC` (stereo not drawn) (as salt: HCl) [compound 16, N-allyl-N-(2-(5-fluoro-1H-indol-3-yl)ethyl)butan-2-amine]: the melting point is 157 to 161.8 °C.
On to `CCCN(CC)CCc1c[nH]c2cc(Cl)c(F)cc12` (as salt: hydrochloride) [compound 37, N-(2-(6-chloro-5-fluoro-1H-indol-3-yl)ethyl)-N-ethylpropan-1-amine], for which the melting point fell in the range of 231 to 232.6 °C.
Still for that read-out and setting: the result for `CC(C)N(CC#N)CCc1c[nH]c2ccc(F)cc12` (as salt: HCl) [compound 17, 2-((2-(5-fluoro-1H-indol-3-yl)ethyl)(isopropyl)amino)acetonitrile] reads 147 to 150 °C (dec.).
`CN1CCC(c2c[nH]c3ccc(F)cc23)C1` (stereo not drawn) [compound 15, 5-fluoro-3-(1-methylpyrrolidin-3-yl)-1H-indole] had a melting point of 122.8 to 125.1 °C. In addition, at Serotonin 5-HT2A (human), the “5-HT2A pKi ± SEM” value was found to be 6.98.
For `CN(CCc1c[nH]c2ccc(F)cc12)C1CC1` (as salt: hydrochloride) [compound 160, N-(2-(5-fluoro-1H-indol-3-yl)ethyl)-N-methylcyclopropanamine], the melting point was 218.8 to 219.3 °C.
`CCCN(CCc1c[nH]c2ccc(F)cc12)C(C)C` (as salt: HCl) [Example 4, N-(2-(5-fluoro-1H-indol-3-yl)ethyl)-N-isopropylpropan-1-amine] registered a melting point of 155.8 to 158 °C.
Turning to `CC(C1CC1)N(C)CCc1c[nH]c2ccc(F)cc12` (stereo not drawn) (as salt: HCl), the melting point lay within 100.7 to 101.5 °C.
Same read-out and setting: the result for `CCN(CCc1c[nH]c2ccc(F)cc12)C1CC1` (as salt: hydrochloride) reads 219.7 to 220.1 °C; that for `CCCN(CC)CCc1c[nH]c2c(F)c(F)c(F)cc12` (as salt: hydrochloride) [compound 165, N-ethyl-N-[2-(5,6,7-trifluoro-1H-indol-3-yl)ethyl]propan-1-amine], 188 to 188.8 °C.
Same read-out and setting: next, `CCN(C)CCc1c[nH]c2c(F)cc(F)cc12` (as salt: hydrochloride) [compound 69, 2-(5,7-difluoro-1H-indol-3-yl)-N-ethyl-N-methylethan-1-amine]: 152.7 to 153.5 °C.
For the compound `C=CCN(C)CCc1c[nH]c2ccc(F)cc12` [Example 10, N-(2-(5-fluoro-1H-indol-3-yl)ethyl)-N-methylprop-2-en-1-amine], the EC50 at 5-HT1A is 89.1 nM; at 5-HT2A, 0.479 nM; on 5-HT2C it was 3.02 nM; at 5-HT2B it was 0.955 nM. Moreover, the “5-HT1A-cAMP Emax (% 5-HT)” value on 5-HT1A amounted to 97.8 ± 2.7 % 5-HT. This compound also had a Ki on Serotonin 5-HT2A (human) of 309 nM. Besides, the “5-HT2A-Ca2+ FLUX Emax (% 5-HT)” value on 5-HT2A (IA = Inactive, N=1-3) amounted to 100.3 ± 2.2 % 5-HT. Further, the “5-HT2C-Ca2+ FLUX Emax (% 5-HT)” value at 5-HT2C (IA = Inactive, N=1-3) is listed as 97.4 ± 2.6 % 5-HT. Besides, the “5-HT2B-Ca2+ FLUX Emax (% 5-HT)” value at 5-HT2B (IA = Inactive, N=1-3) came out at 73.8 ± 2.3 % 5-HT.
In the case of `C=CCN(CCc1c[nH]c2ccc(F)cc12)C(C)C` (as salt: HCl) [Example 11, N-(2-(5-fluoro-1H-indol-3-yl)ethyl)-N-isopropylprop-2-en-1-amine], the melting point is 132 to 134 °C.
In turn, `CCCN(CC)CCc1c[nH]c2ccc(F)c(F)c12` (as salt: fumarate) [compound 21, N-(2-(4,5-difluoro-1H-indol-3-yl)ethyl)-N-ethylpropan-1-amine] registered a melting point of 182.1 to 183.3 °C.
Consider `CC(C)N(CCc1c[nH]c2ccc(F)cc12)C1CC1` [compound 168, N-(2-(5-fluoro-1H-indol-3-yl)ethyl)-N-isopropylcyclopropanamine], for which the melting point was 196.4 to 196.8 °C. Besides, the “5-HT2A pKi ± SEM” value at Serotonin 5-HT2A (human) was 6.18.
